Patent US20220153746A1, “NITROGEN OXIDE-DONATING PDE-5 AND/OR PDE-6 INHIBITOR COMPOUNDS, AND USES THEREOF” (ILDONG PHARMACEUTICAL CO., LTD., priority 2020, published 2022)
Like-named read-outs stand apart in the source and are kept apart here.

Assay: PK Phase (Group 2): plasma concentrations and pharmacokinetics of Compound 18 and its metabolite Compound 4 after once daily ocular instillation of Compound 18 nanosuspension for 7 days
Assay type: in vivo, New Zealand white rabbits
Conditions: male, New Zealand white, rabbit, plasma; for concentration at 8 h / concentration at 24 h: 0.821 mg/kg/day; for Cmax / Tmax / AUC(0-t): topical or ocular, 0.8 mg/kg; for AUC(0-t): read-out: AUC0-24
From the text: This example illustrates the procedures and results for the levels of Compound 18 and its metabolite Compound 4 in plasma and ocular tissues of normotensive rabbits following ocular instillation of Compound 18 once daily for 7 consecutive days.
Twenty five (25) male New Zealand white rabbits were divided into 5 groups of varying amounts of animals per group.
The Test article, Compound 18 was formulated as a 2% nanosuspension in DI water containing 0.2% PS80 (polyoxyethylenesorbitan, monooleate (Tween 80)) and 0.4% HPMC (hydroxypropylmethylcellulose) at pH 6.77. Referred to herein as “Compound 18 nanosuspension.”
The study consisted of three groups (Groups 1-3) of 19 male rabbits (NZW) that underwent once daily morning ocular installation (1 eyedrop) for 7 consecutive days (Day 0-6). Groups 4-5 each consisted of 3 male rabbits (NZW) that were not dosed.
Blood samples (1 mL) were collected from the jugular vein at the intervals set out below for each group. The samples were then inverted several times following collection and held on wet ice until centrifuged. Samples were centrifuged within 60 minutes of collection under refrigeration (set at 5° C. for 10 minutes at 2000 g. […]
Plasma and tissue samples from treated animals (Groups 1-3) were analyzed for Compound 18 and its metabolite Compound 4 concentrations by LC-MS/MS.
Pharmacokinetic analysis was conducted using WinNonlin Version 6.2.1 (Pharsight, Mountain View, Calif.), operating as a validated software system. Noncompartmental analysis was conducted using the extravascular administration model for ocular instillation dosing.
The peak plasma concentration, time to achieve peak plasma concentration, half-life, and area under the plasma concentration-time curve (Cmax, Tmax, T1/2, and AUC) were calculated from the PK phase individual animal plasma concentrations for each sampling time/dose group for Compound 18 and its metabolite Compound 4.
BA Assay: Quantitation Range 0.05 to 100 ng/mL for Compound 18, 0.15 to 100 ng/mL for Compound 4.
Plasma calibration standards (PLSTD-A) with Compound 18 concentrations ranging from 0.0500 to 100 ng/mL were prepared by spiking control rabbit plasma with appropriate calibration curve spiking solutions (SS-A). PLQC-A samples with concentrations of 0.150, 5.00, 50.0, and 80.0 ng/mL were prepared by spiking control rabbit plasma with appropriate SS-A-QC spiking solutions.
Plasma calibration standards (PLSTD-B) with Compound 4 concentrations ranging from 0.150 to 100 ng/mL were prepared by spiking control rabbit plasma with appropriate calibration curve spiking solutions (SS-B). PLQC-B samples with concentrations of 0.450, 5.00, 50.0, and 80.0 ng/mL were prepared by spiking control rabbit plasma with appropriate SS-B-QC spiking solutions. PLQC-B-Dil samples at 800 ng/mL were prepared by spiking control rabbit plasma with the SS-B-QC-Dil spiking solution at 16,000 ng/mL, and then diluted 20× with control rabbit plasma prior to extraction.
1. Thaw plasma standards, plasma QC samples, ocular tissue QC samples, incurred plasma samples and ocular tissue samples (AH/VH) (if applicable) on wet ice. Control plasma can be thawed in tepid water. Vortex before taking aliquots.
2. Pipet 50 μL of water for Reagent Blank, 50 μL of control plasma for Double Blank and Blank, 50 μL of pre-spiked plasma for Standards and QC samples, 50 μL of incurred plasma samples (if applicable) into a 96 well plate.
5. Add 200 μL of working internal standard (WIS) solution to all remaining samples.
6. Seal the plate and vortex for approximately 5 minutes. Centrifuge the plate at 3500 rpm for 10 minutes at ˜4° C.
7. Transfer ˜200 μL of each sample supernatant into the appropriate wells of a 96 well plate. Submit for LC MS/MS analysis.
A total of 25 rabbits were used for this study, including 19 treated rabbits and 6 control rabbits. […]

[1] = other: ocular instillation (eye drop), Mean of 4 animals, BQL set to 0, read-out: Day 7 Compound 18 Plasma Concentration
[2] = other: ocular instillation (eye drop), animal 207666, read-out: Day 7 Compound 18 Plasma Concentration
[3] = other: ocular instillation, 0.8 mg/kg/day, Mean of 4 animals, BQL set to 0, read-out: Day 1 Compound 18 Plasma Concentration
[4] = other: ocular instillation, 0.8 mg/kg/day, animal 207666, read-out: Day 1 Compound 18 Plasma Concentration
[5] = other: ocular instillation, 0.8 mg/kg/day, animal 207667, read-out: Day 1 Compound 18 Plasma Concentration
[6] = Day 1, Compound 18 0.8 mg/kg ocular instillation, Mean, n=4
[7] = Day 1, Compound 18 0.8 mg/kg ocular instillation, animal 207664
[8] = Day 1, Compound 18 0.8 mg/kg ocular instillation, animal 207665
[9] = Day 1, Compound 18 0.8 mg/kg ocular instillation, animal 207666
[10] = Day 1, Compound 18 0.8 mg/kg ocular instillation, animal 207667
[11] = Day 7, Compound 18 0.8 mg/kg ocular instillation, Mean, n=4
[12] = Day 7, Compound 18 0.8 mg/kg ocular instillation, animal 207664
[13] = Day 7, Compound 18 0.8 mg/kg ocular instillation, animal 207665
[14] = Day 7, Compound 18 0.8 mg/kg ocular instillation, animal 207666
[15] = Day 7, Compound 18 0.8 mg/kg ocular instillation, animal 207667

What does the source list for `CCCc1nn(C)c2c(=O)[nH]c(-c3cc(S(=O)(=O)N4CC(CCCO[N+](=O)[O-])C4)ccc3OCC)nc12` [Compound 18, 3-(1-((4-ethoxy-3-(1-methyl-7-oxo-3-propyl-6,7-dihydro-1H-pyrazolo[4,3-d]pyrimidin-5-yl)phenyl)sulfonyl)azetidin-3-yl)propyl nitrate]?
concentration at 8 h [1]: 0.0279 ng/mL; concentration at 8 h (other: ocular instillation (eye drop), animal 207665, read-out: Day 7 Compound 18 Plasma Concentration): 0.0505 ng/mL; concentration at 8 h [2]: 0.0611 ng/mL; concentration at 24 h (other: ocular instillation (eye drop), Mean of 4 animals, BQL set to 0, read-out: Day 1 Compound 18 Plasma Concentration): 0.0171 ng/mL; concentration at 24 h [1]: 0.0401 ng/mL; concentration at 24 h (other: ocular instillation (eye drop), animal 207666, read-out: Day 1 Compound 18 Plasma Concentration): 0.0682 ng/mL; concentration at 24 h [2]: 0.0989 ng/mL; concentration at 24 h (other: ocular instillation (eye drop), animal 207667, read-out: Day 7 Compound 18 Plasma Concentration): 0.0614 ng/mL; concentration at 0.5 h (other: ocular instillation (eye drop), 2 mg/day, animal 207664, read-out: Day 1 Compound 18 Plasma Concentration): 0.0863 ng/mL; concentration at 0.5 h [3]: 0.161 ng/mL; concentration at 0.5 h (other: ocular instillation, 0.8 mg/kg/day, animal 207665, read-out: Day 1 Compound 18 Plasma Concentration): 0.0721 ng/mL; concentration at 0.5 h [4]: 0.313 ng/mL; concentration at 0.5 h [5]: 0.171 ng/mL; concentration at 1 h [3]: 0.0601 ng/mL; concentration at 1 h [4]: 0.183 ng/mL; concentration at 1 h [5]: 0.0575 ng/mL; Cmax [6]: 0.161 ± 0.111 ng/mL; Tmax [6]: 30 min; AUC(0-t) [6]: 0.311 ± 0.488 ng·h/mL; Cmax [7]: 0.0863 ng/mL; Tmax [7]: 30 min; AUC(0-t) [7]: 0.0216 ng·h/mL; Cmax [8]: 0.0721 ng/mL; Tmax [8]: 30 min; AUC(0-t) [8]: 0.018 ng·h/mL; Cmax [9]: 0.313 ng/mL; Tmax [9]: 30 min; AUC(0-t) [9]: 1.04 ng·h/mL; Cmax [10]: 0.171 ng/mL; Tmax [10]: 30 min; AUC(0-t) [10]: 0.17 ng·h/mL; Cmax [11]: 0.17 ± 0.105 ng/mL; Tmax [11]: 156 ± 216 min; AUC(0-t) [11]: 0.754 ± 0.794 ng·h/mL; Cmax [12]: 0.306 ng/mL; Tmax [12]: 60 min; AUC(0-t) [12]: 0.372 ng·h/mL; Cmax [13]: 0.0505 ng/mL; Tmax [13]: 480 min; AUC(0-t) [13]: 0.101 ng·h/mL; Cmax [14]: 0.163 ng/mL; Tmax [14]: 30 min; AUC(0-t) [14]: 1.9 ng·h/mL; Cmax [15]: 0.161 ng/mL; Tmax [15]: 60 min; AUC(0-t) [15]: 0.644 ng·h/mL
